Reference: patent US20250228901A1, “COMPOSITION FOR PREVENTING, ALLEVIATING OR TREATING INFLAMMATORY SKIN DISEASES, COMPRISING CUTIBACTERIUM SP. STRAIN” (CJ Bioscience, Inc., priority 2021, published 2025)

Columns and labels:
[1] = tested on: mice in which rosacea is induced; experiment: Rosacea animal model induced by LL37 peptide; assay type: in vivo, BALB/c mice; conditions: for Dermal inflammation (histopathological evaluation score) / Epithelial hyperplasia (histopathological evaluation score): H&E staining of LL37-administered skin, culture products 150 μl i.p. x3, doxycycline 1 mg/kg x3, LL37 = rosacea induction only; for Total (histopathological evaluation score): sum of epithelial hyperplasia and dermal inflammation scores
Experimental: For the present animal effectiveness test, 32 5-week-old female BALB/c mice were purchased from Orient Bio company, and brought into a breeding room with a 12-hour artificial photoperiod, and acclimatized for one week, and then used in the experiment.
To make a rosacea animal model, hair on the mice's back area was removed using a depilator and hair removal cream. In 24 hours after depilation, to induce rosacea lesions, LL37 peptide (Peptron, Co., Ltd) of 320 μM was under intradermal injection using an insulin syringe by 50 μl. […] Doxycycline, which is one of conventional rosacea therapies, was peritoneally administered by 1 mg/kg once a day, for 3 days (total 3 times).
After 24 hours of the last strain culture product administration, the size (area) of erythema was measured using a caliper, and the animals were euthanized using CO2 gas, and then the lesion area was taken as a photograph and the degree of the erythema was observed by naked eyes and the tissue photographs and the area of the inflammation area were shown in FIG. 14a and FIG. 14b as graphs.

Raw264.7 macrophages = experiment: Inflammation regulation by living cells co-cultured with Raw264.7 macrophages, IL-6 and IL-10 ELISA; assay type: cell-based; conditions: living cells co-cultured 1:1 with macrophages, 24 hours; compared to the B. fragilis strain
Experimental: The secured living cells and immunocytes (Raw264.7 macrophages) were co-cultured at the same ratio (1:1) of 5×10^4/well, respectively, in a 96 well plate for 24 hours, and then the inflammation regulation efficacy of the strains was confirmed. As a control group, a B. fragilis strain known as an inflammation alleviating strain was used. The secreted amounts of the inflammatory cytokine (IL-6) and anti-inflammatory cytokine (IL-10) secreted from the macrophages were measured by ELISA, and then values thereof were calculated at a ratio of IL-10/IL-6 and they were shown in FIG. 11.

| Molecule | Dermal inflammation (histopathological evaluation score) [1] | Epithelial hyperplasia (histopathological evaluation score) [1] | Total (histopathological evaluation score) [1] | secreted amount of the anti-inflammatory cytokine (IL-10) (Raw264.7 macrophages) | secreted amount of the inflammatory cytokine (IL-6) (Raw264.7 macrophages) |
| --- | --- | --- | --- | --- | --- |
| C[C@H]1c2cccc(O)c2C(=O)C2=C(O)[C@]3(O)C(=O)C(C(N)=O)=C(O)[C@@H](N(C)C)[C@@H]3[C@@H](O)[C@@H]21 [doxycycline] | 2.4 | 1.2 | 3.6 |  |  |
| Cutibacterium acnes CJRS-10651 |  |  |  | promoted | reduced |
| Cutibacterium acnes CJRS-10652 |  |  |  | promoted | reduced |
| Cutibacterium acnes CJRS-10653 |  |  |  | promoted | reduced |
| Cutibacterium acnes CJRS-10654 |  |  |  | promoted | reduced |
| Cutibacterium acnes CJRS-10655 |  |  |  | promoted | reduced |
| Cutibacterium acnes CJRS-10656 |  |  |  | promoted | reduced |
| LL37 | 2.5 | 2.75 | 5.25 |  |  |
